Test results as given in patent US4766119A, “Antispasmodic alkylated aminothioester derivatives” (United Pharmaceuticals, Inc., priority 1985, dated 1988).
Counter-ions that a name gives are not always drawn.

Legend:
[1] = test system: muscarinic receptors (rabbit lung tissue); format: binding, rabbit (New Zealand White); details: 0.1 nM [3H]QNB, 37° C., 60 min, pH 7.4
[2] = test system: bethanechol-contracted rabbit bladder strips; experiment: relaxation of bethanechol-contracted rabbit urinary bladder strip (organ bath); format: cell-based; details: 250 μM bethanechol; for inhibition at 100 µM / inhibition at 10 µM / inhibition at 1 µM / inhibition at 0.1 µM / inhibition at 0.01 µM: Oryctolagus cuniculus, maximal relaxation = pre-bethanechol tone, read-out: % of maximum relaxation
Experimental: The pharmacological actions of two anti-spasmodic compounds were studied in a rabbit urinary bladder strip preparation. In general, longitudinal strips were prepared from the base of freshly isolated rabbit bladders and were then suspended under near-physiological conditions in tissue baths. The strips were attached to force transducers and both contractile and relaxant activity was measured. To measure the relaxant effects on the anti-spasmodic compounds on previously-contracted bladder strips, the strips were initially exposed to the muscarinic receptor agonist bethanechol and allowed to reach a steady level of contractile activity for 20 minutes. At this point cumulative dose-responses to the various compounds were recorded. The rabbit abdomens were opened through a vertical midline incision. The bladder and urethra were dissected free of all surrounding tissues, removed and placed in aerated (95% O2 :5% CO2) Kreb's-bicarbonate buffer (pH: 7.4) of the following composition ([…]): KCl 4.6, CaCl2.2H2 O 2.5, KH2 PO4 1.2, MgSO4.7H2 O 1.2, NaCl 118.2, NaHCO3 24.8, and glucose 10.0. Longitudinal muscle strips were prepared from the bladder base (approximately 6 mm×4 mm) and suspended in an organ bath containing Kreb's buffer (37° C.) which was continuously aerated with O2 :CO2 (95%:5%). Tissues were allowed to equilibrate to a tension of 2 gm for sixty minutes during which time buffer was replaced at 20 minute intervals. The contractile and relaxant responses of the muscle strips were measured isometrically with a Statham UC3 force-displacement transducer and recorded on an Electronics for Medicine DR8 oscillographic recorder. Bethanechol was employed as the representative cholinergic agonist and, following equilibration, was added to the baths for a final concentration of 250 μM. The tissues were allowed 20 minute to achieve a maintained level of contraction in response to bethanechol and, at this point, cumulative dose-response measurements for two anti-spasmodic compounds were started at concentrations ranging from 10^-8 M to 10^-4 M. Solutions were added in volumes up to 100 μl and were prepared fresh each day by dissolving them in distilled: deionzed water. Responses were measured 5 minutes following any particular cumulative addition and were expressed as a percentage of maximal relaxation (e.g. maximal relaxation is the baseline or pre-bethanechol level of muscle tone).
Dose responses, measured from the standard bethanechol-contracted rabbit bladder strips, at various concentrations of 2-ethyl-butyrol-thio-S-(2-diethylaminoethyl)-ester [CH3 CH2)2 --CH--CO--S--(CH2)2 --N--(CH2 CH3)2.HCl], are presented in Table I:
Dose responses, measured from the standard bethanechol-contracted rabbit bladder strips, at various concentrations of 2-propyl-pentanoyl-thiol-S-(2-diethylaminoethyl)-ester.HCl [(CH3 CH2 CH2)2 --CH--CO--S--(CH2)2 --N--(CH2 CH3)2.HCl] are presented in Table II: […]

[3] = test system: salivary and sweat glands, GI glands, the eye or the cardiovascular system; details: cited from earlier work
[4] = test system: smooth muscle (gastrointestinal tract, biliary tract, ureter and uterus); details: cited from earlier work

SMILES | % inhibition of 3H[QNB] binding (at a concentration of 1.0 × 10^-5 M) [1] | Decrease in force of contraction of rabbit bladder strip ([2]; 10^-4 moles/liter) | Increase in length of rabbit bladder strip ([2]; 10^-4 moles/liter) | Decrease in force of contraction of rabbit bladder strip ([2]; 10^-5 moles/liter) | Increase in length of rabbit bladder strip ([2]; 10^-5 moles/liter) | Decrease in force of contraction of rabbit bladder strip ([2]; 10^-6 moles/liter) | Increase in length of rabbit bladder strip ([2]; 10^-6 moles/liter) | Decrease in force of contraction of rabbit bladder strip ([2]; 10^-7 moles/liter) | Increase in length of rabbit bladder strip ([2]; 10^-7 moles/liter) | Decrease in force of contraction of rabbit bladder strip ([2]; 10^-8 moles/liter) | Increase in length of rabbit bladder strip ([2]; 10^-8 moles/liter) | inhibition at 100 µM ([2]; 10^-4 moles/liter) | inhibition at 10 µM ([2]; 10^-5 moles/liter) | inhibition at 1 µM ([2]; 10^-6 moles/liter) | inhibition at 0.1 µM ([2]; 10^-7 moles/liter) | inhibition at 0.01 µM ([2]; 10^-8 moles/liter) | characteristic atropinic side effects [3] | decrease of spasm [4]
CCC(CC)C(=O)SCCN(CC)CC [2-ethyl-butyryl-thio-S-(2-diethylaminoethyl)ester.HCl] | 64% | 0.54 gm | 1.3 cm | 0.29 gm | 0.7 cm | 0.25 gm | 0.6 cm | 0.17 gm | 0.4 cm | 0.13 gm | 0.3 cm | 37% | 20% | 17.1% | 11.4% | 8.6% |  | 
CCCC(CCC)C(=O)SCCN(CC)CC [2-propyl-pentanoyl-thio-S-(2-diethylaminoethyl)-ester.HCl] | 95% | 0.81 gm | 2.9 cm | 0.31 gm | 1.1 cm | 0.0 gm | 0.0 cm | 0.0 gm | 0.0 cm | 0.0 gm | 0.0 cm | 100% | 100% | 0% | 0% | 0% |  | 
CCN(CC)CCSC(=O)C(c1ccccc1)c1ccccc1 [Thiphenamil hydrochloride] |  |  |  |  |  |  |  |  |  |  |  |  |  |  |  |  | without producing characteristic atropinic side effects on salivary and sweat glands, GI glands, the eye or the cardiovascular system | decrease spasm of the gastrointestinal tract, biliary tract, ureter and uterus
